In patent publication US10092643B2, “Prophylactic and immunomodulatory compositions and uses” (Kherion Technology Limited, priority 2005, dated 2018):

How the values were obtained:
[1] = test system: Mycobacterium tuberculosis; conditions: MTB-infected mice, intravenously injected; cited from earlier work
[2] = test system: dendritic cells; conditions: administered to dendritic cells in vitro; cited from earlier work
[3] = test system: macrophages and epithelial cells; assay: S1P given before infection: control of infection by macrophages and epithelial cells; type: cell-based; conditions: S1P administered before infection
[4] = test system: M. tuberculosis (Erdman); assay: S1P as adjuvant for BCG vaccine in mice (immunogenicity and protection protocol); conditions: protocol to be followed
[5] = test system: macrophagic phospholipase D (PLD); conditions: cited from earlier work
[6] = test system: Mtb-infected macrophages; conditions: cited from earlier work
[7] = test system: T cells; conditions: Jin et al., Blood 2003; cited from earlier work
[8] = safety of S1P administration in mice; conditions: levels at which immunoregulatory activity can be measured
[9] = test system: Mycobacterium tuberculosis; conditions: human macrophages; concentration close to physiologic ones; cited from earlier work
[10] = test system: Mtb specific T cells; assay: expansion of Mtb specific T cells after S1P administration to TB-infected macrophages; type: cell-based; conditions: S1P administered to TB-infected macrophages

SMILES: CCCCCCCCCCCCC/C=C/C(O)C(N)COP(=O)(O)O [S1P, D-erythro-sphingosine 1-phosphate]
- mycobacterial growth [1]: significantly reduced
- pulmonary tissue damage [1]: significantly reduced
- secretion of cytokine profiles (Th1/Th2 responses) [2]: alter the secretion of cytokine profiles
- capacity to control an infection [3]: increases the capacity of macrophages and epithelial cells to control an infection
- properties as a vaccine adjuvant [4]: novel, unexpected and advantageous properties as a vaccine adjuvant
- PLD activity in macrophages [5]: increase PLD activity in macrophages
- phagolysosomal fusion [6]: promote phagolysosomal fusion
- activation and proliferation of T cells [7]: inhibit activation and proliferation of T cells
- safety [8]: appears safe
- antimicrobial activity / intracellular killing of TB [9]: induce antimicrobial activity in human macrophages leading to the intracellular killing of TB
- expansion of Mtb specific T cells [10]: induces expansion of Mtb specific T cells
